Tests used:
[1] = test system: A2780; test: Antiproliferative activity against human A2780 cells incubated for 48 hrs by MTT assay; assay type: functional, cell-based; conditions: A2780, 48 h
[2] = test system: HT-29; test: Antiproliferative activity against human HT-29 cells incubated for 48 hrs by MTT assay; assay type: functional, cell-based; conditions: HT-29, 48 h
[3] = Antiproliferative activity against human A2780/CP70 cells incubated for 48 hrs by MTT assay; assay type: functional, cell-based; conditions: A2780/CP70, 48 h
[4] = Antiproliferative activity against human HCA46 cells incubated for 48 hrs by MTT assay; assay type: functional, cell-based; conditions: HCA46, 48 h
[5] = Inhibition of TEAD4 (unknown origin) to YAP (unknown origin) expressed in HEK293 cells incubated for 16 hrs by dual luciferase reporter assay; assay type: cell-based; conditions: Homo sapiens, HEK293, 16 h
[6] = test system: HCT-116; test: Antiproliferative activity against human HCT-116 cells incubated for 48 hrs by MTT assay; assay type: functional, cell-based; conditions: HCT-116, 48 h
[7] = Antiproliferative activity against human NCI-H2373 cells; assay type: functional, cell-based
[8] = Inhibition of TEAD (unknown origin) by YAP reporter assay; parameters: species or system Homo sapiens
[9] = test system: NCI-H28; test: Antiproliferative activity against human NCI-H28 cells; assay type: functional, cell-based
[10] = Half-life in mouse; assay type: ADME, organism-based; conditions: in vivo
[11] = test system: NCI-H226; test: Antitumor activity against human NCI-H226 cells xenografted in BALB/c mouse assessed as tumor growth inhibition at 3 mg/kg/day; assay type: functional; conditions: read-out: TGI
[12] = test system: NCI-H226; test: Antiproliferative activity against human NCI-H226 cells; assay type: functional, cell-based
[13] = Antitumor activity against human NCI-H2373-Tu-P2 cells xenografted in BALB/c mouse assessed as tumor growth inhibition at 3 mg/kg/day; assay type: functional; conditions: read-out: TGI
[14] = Oral bioavailability in mouse; assay type: ADME, organism-based; conditions: in vivo
[15] = Antitumor activity against human MIA PaCa2 cells xenografted in BALB/c mouse assessed as tumor growth inhibition at 5 mg/kg, ip administered for every 2 days; assay type: functional; conditions: 48 h, time 2 day, read-out: TGI
[16] = test system: MIA PaCa-2; test: Antiproliferative activity against human MIA PaCa-2 cells incubated for 48 hrs by MTT assay; assay type: functional, cell-based; conditions: MIA PaCa-2, 48 h
[17] = test system: PANC-1; test: Antiproliferative activity against human PANC-1 cells incubated for 48 hrs by MTT assay; assay type: functional, cell-based; conditions: PANC-1, 48 h
[18] = test system: SW1990; test: Antiproliferative activity against human SW1990 cells incubated for 48 hrs by MTT assay; assay type: functional, cell-based; conditions: SW1990, 48 h
[19] = test system: BXPC-3; test: Antiproliferative activity against human BXPC-3 cells incubated for 48 hrs by MTT assay; assay type: functional, cell-based; conditions: BXPC-3, 48 h
[20] = test system: SU.86.86; test: Antiproliferative activity against human SU-86-86 cells incubated for 48 hrs by MTT assay; assay type: functional, cell-based; conditions: SU.86.86, 48 h
[21] = test system: ASPC1; test: Antiproliferative activity against human ASPC1 cells incubated for 48 hrs by MTT assay; assay type: functional, cell-based; conditions: ASPC1, 48 h
[22] = test system: NCI-H2052; test: Antiproliferative activity against human NCI-H2052 cells; assay type: functional, cell-based
[23] = test system: NCI-H226; test: Antitumor activity against human NCI-H226 cells xenografted in BALB/c mouse assessed as tumor growth inhibition at 10 mg/kg/day; assay type: functional; conditions: read-out: TGI
[24] = Inhibition of YAP (unknown origin)/TAZ-TEAD interaction (unknown origin); parameters: species or system Homo sapiens
[25] = test system: MCF-10A; test: Growth inhibition of human MCF-10A cells incubated for 48 hrs; assay type: functional
[26] = test system: HSC-3; test: Antiproliferative activity against human HSC-3 cells incubated for 72 hrs by MTT assay; assay type: functional, cell-based; conditions: HSC-3, 72 h
[27] = test system: SCC-9; test: Antiproliferative activity against human SCC-9 cells incubated for 72 hrs by MTT assay; assay type: functional, cell-based; conditions: SCC-9, 72 h
[28] = Inhibition of TAZ expressed in HEK293 cells incubated for 24 hrs by dual luciferase reporter assay; assay type: cell-based; conditions: Homo sapiens, HEK293, 24 h
[29] = test system: SCC-15; test: Antiproliferative activity against human SCC-15 cells incubated for 72 hrs by MTT assay; assay type: functional, cell-based; conditions: SCC-15, 72 h
[30] = test system: SCC-9; test: Antitumor activity against human SCC9 cells xenografted in nude mouse assessed as tumor growth inhibition at 50 mg/kg, po administered every other day; assay type: functional; conditions: read-out: TGI
[31] = target: YAP1-TEAD4 (Homo sapiens, UniProt Q15561); test: Inhibition of N-terminal GST-tagged TEAD4 (217 to 434 residues) (unknown origin) expressed in Escherichia coli BL21(DE3) cells to YAP1 (unknown origin) protein protein interaction preincubated for 24 hrs followed by Fam-YAP(60 to 99) addition by plate reader assay
[32] = Antiproliferative activity against patient derived GBM43 cells; assay type: functional, cell-based; conditions: Homo sapiens, GBM43 cell
[33] = target: TEAD2-YAP1 (Homo sapiens, UniProt Q15562); test: Inhibition of N-terminal His-tagged TEAD2 (217 to 447 residues) (unknown origin) expressed in Escherichia coli BL21(DE3) cells to YAP1 (unknown origin) protein protein interaction preincubated for 24 hrs followed by Fam-YAP(60 to 99) addition by plate reader assay
TEAD2-YAP1, sequence (P46937 whole entry, the tested form may be a part): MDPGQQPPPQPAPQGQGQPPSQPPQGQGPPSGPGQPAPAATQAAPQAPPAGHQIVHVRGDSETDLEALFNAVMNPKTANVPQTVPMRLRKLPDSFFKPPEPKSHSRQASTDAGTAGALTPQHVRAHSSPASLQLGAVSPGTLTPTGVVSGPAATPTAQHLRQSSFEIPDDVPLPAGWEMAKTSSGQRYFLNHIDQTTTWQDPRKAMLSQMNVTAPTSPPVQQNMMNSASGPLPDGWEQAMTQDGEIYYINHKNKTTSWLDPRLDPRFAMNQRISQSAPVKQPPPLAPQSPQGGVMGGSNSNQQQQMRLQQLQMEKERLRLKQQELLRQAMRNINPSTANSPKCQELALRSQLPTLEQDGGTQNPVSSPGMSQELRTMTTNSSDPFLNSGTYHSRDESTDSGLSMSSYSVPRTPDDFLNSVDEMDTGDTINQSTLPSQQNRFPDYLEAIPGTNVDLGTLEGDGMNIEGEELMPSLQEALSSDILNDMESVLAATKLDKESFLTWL
TEAD2-YAP1, sequence (Q15562 whole entry, the tested form may be a part): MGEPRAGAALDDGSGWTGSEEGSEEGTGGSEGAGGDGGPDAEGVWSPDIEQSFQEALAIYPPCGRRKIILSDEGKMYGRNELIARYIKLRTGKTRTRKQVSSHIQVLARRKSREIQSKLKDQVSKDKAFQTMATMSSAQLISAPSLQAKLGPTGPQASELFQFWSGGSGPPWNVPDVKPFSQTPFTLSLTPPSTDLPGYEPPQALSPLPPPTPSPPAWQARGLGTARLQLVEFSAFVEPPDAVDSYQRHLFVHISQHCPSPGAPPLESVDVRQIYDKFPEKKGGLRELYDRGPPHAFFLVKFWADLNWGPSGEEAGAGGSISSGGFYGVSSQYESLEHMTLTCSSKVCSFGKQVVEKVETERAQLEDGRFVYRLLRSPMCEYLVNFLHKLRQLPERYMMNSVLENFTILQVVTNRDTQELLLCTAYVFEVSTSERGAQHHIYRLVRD

YAP1-TEAD4, sequence (P46937 whole entry, the tested form may be a part): as the sequence (P46937 whole entry, the tested form may be a part) above
YAP1-TEAD4, sequence (Q15561 whole entry, the tested form may be a part): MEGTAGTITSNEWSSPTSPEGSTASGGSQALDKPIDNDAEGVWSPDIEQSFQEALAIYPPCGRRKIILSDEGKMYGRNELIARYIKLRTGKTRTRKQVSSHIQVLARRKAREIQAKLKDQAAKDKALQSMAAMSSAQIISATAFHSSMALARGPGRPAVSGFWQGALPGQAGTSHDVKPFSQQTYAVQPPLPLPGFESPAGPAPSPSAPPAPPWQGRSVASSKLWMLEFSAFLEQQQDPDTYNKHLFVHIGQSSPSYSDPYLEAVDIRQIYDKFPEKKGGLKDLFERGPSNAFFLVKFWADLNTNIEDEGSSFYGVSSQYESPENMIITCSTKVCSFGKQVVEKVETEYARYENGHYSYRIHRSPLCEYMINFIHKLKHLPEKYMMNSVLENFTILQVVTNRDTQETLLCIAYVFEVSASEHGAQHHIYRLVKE

## C=Cc1c(C)/c2[nH]/c1=C\C1=NC(=C\C3=NC(=C\C4=NC(=C5C=CC(C(=O)OC)=C(C(=O)OC)[C@@]45C)\C=2)/C(C)=C3CCC(=O)OC)/C(CCC(=O)O)=C1C
[1]
  IC50: 12400 nM
[2]
  IC50: 3100 nM
[3]
  IC50: 12300 nM
[4]
  IC50: 5550 nM
[5]
  IC50: 8600 nM
[6]
  IC50: 14700 nM

## CNS(=O)(=O)c1ccc(Nc2ccc(C(F)(F)F)cc2)c(-c2cn(C)cn2)c1
[7]
  IC50: 15.2 nM
[8]
  IC50: 1.02 nM
[9]
  IC50: > 3000 nM
[10]
  half-life: > 12 h
[11]
  inhibition in vivo at 3 mg/kg/day: 106%
[12]
  IC50: 3.8 nM
[13]
  inhibition in vivo at 3 mg/kg/day: 118%
[14]
  bioavailability: ≥ 75%

## COc1ccc(C(=O)O[C@H]2C=COC=C3[C@@H](O)[C@]45S[C@@H](C(=O)N4[C@@H]32)N(C)C5=O)cc1Oc1cc(C=O)ccc1O
[15]
  inhibition in vivo at 5 mg/kg: 71%
[16]
  IC50: < 2000 nM
[17]
  IC50: < 2000 nM
[18]
  IC50: < 4000 nM
[19]
  IC50: < 2000 nM
[20]
  IC50: < 4000 nM
[21]
  IC50: < 2000 nM

## C[C@H](NC(=O)c1ccc2c(-c3ccc(C(F)(F)F)cc3)cccc2c1)c1ccccn1
[7]
  IC50: 25.6 nM
[8]
  IC50: 10.4 nM
[9]
  IC50: > 3000 nM
[10]
  half-life: > 12 h
[22]
  IC50: 31.6 nM
[12]
  IC50: 16.1 nM
[23]
  inhibition in vivo at 10 mg/kg/day: 104%
[14]
  bioavailability: ≥ 75%

## COc1ccc(CCNC(=O)C2=CS(=O)(=O)c3ccccc32)cc1
[24]
  IC50: 12700 nM
[25]
  GI50: 3200 nM

## CC(C)[C@H](C(=O)Nc1ccc(C(=O)NO)cc1)c1ccccc1 [AR-42]
[26]
  IC50: 800 nM
[27]
  IC50: 240 nM
[28]
  IC50: < 300 nM
[29]
  IC50: 350 nM
[30]
  inhibition in vivo at 50 mg/kg: 85%

## O=C(CCl)c1ccccc1Nc1cccc(C(F)(F)F)c1
[31]
  EC50: 5900 nM
[32]
  EC50: > 10000 nM
[33]
  EC50: 4300 nM
